Source: PubChem BioAssay (NCI)
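Test compounds were applied to cells in 96-well plates for 48 hours at 5 doses. Definition used: TGI = concentration required for complete inhibition of growth.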

What was measured:
Experiment in all cases: DTP human tumour cell line panel, 48 h
CCRF-CEM leukemia = system: CCRF-CEM leukemia
HCT-116 colon = system: HCT-116 colon
MOLT-4 leukemia = system: MOLT-4 leukemia
NCI-H23 lung = system: NCI-H23 lung
SNB-19 CNS = system: SNB-19 CNS
SNB-75 CNS = system: SNB-75 CNS

| SMILES | TGI (CCRF-CEM leukemia) [µM] | TGI (HCT-116 colon) [µM] | TGI (MOLT-4 leukemia) [µM] | TGI (NCI-H23 lung) [µM] | TGI (SNB-19 CNS) [µM] | TGI (SNB-75 CNS) [µM] |
| --- | --- | --- | --- | --- | --- | --- |
| C=CCN1C(=O)/C(=C/c2ccc(Cl)cc2)N=C1SC/C=C/C | > 100 | > 100 | 43.8 | > 100 | > 100 | > 100 |
| CC1=CC[C@H](C[C@H](C#CCCCC2OCCO2)O[Si](C(C)C)(C(C)C)C(C)C)C(=O)CC1 | > 100 | > 100 | > 100 | > 100 | > 100 | > 100 |
| NC1C/C(=N\O)c2c(Cl)sc(Cl)c21 (stereo unspecified) | > 100 | 20.8 | > 100 | 33.7 | 94.3 | 76.9 |
| O=C1c2ccccc2-c2nnc(-c3ccc([N+](=O)[O-])cc3)cc21 | > 10 | > 10 | > 10 | > 10 | > 10 | > 10 |
| C[N+]12CCCCC1C(COc1cccc3cccnc13)CCC2 (stereo unspecified) | > 100 | > 100 | > 100 | > 100 | > 100 | > 100 |
| N=c1c2ccccc2nc2oc3cc([N+](=O)[O-])ccc3n12 | > 100 | > 100 | > 100 | 49.5 | > 100 | 24.9 |
| CC(NC(=O)OCc1ccccc1)NC(=O)OC(C)(C)C (stereo unspecified) | > 100 | > 100 | > 100 | > 100 | > 100 | > 100 |
| C=CC(C)(C)n1cc(C2=C3OC(=O)C(c4cn(C(C)(C)C=C)c5ccccc45)=C3OC2=O)c2ccccc21 | > 100 | > 100 | > 100 | > 100 | > 100 | > 100 |
| O=c1[nH]c2cccc([N+](=O)[O-])c2c(=O)n1-c1ccc(Cl)cc1 | 47.1 | 61.7 | 43.2 | 42.1 | 45 | – |
| CCOC(=O)/C(C#N)=C/Nc1c(C)n(C)n(-c2ccccc2)c1=O | > 100 | > 100 | > 100 | > 100 | – | – |
| O=[N+]([O-])/C(C(Cl)=C(Cl)Cl)=C1\Nc2ccc([N+](=O)[O-])cc2N1 | 56.2 | > 100 | > 100 | > 100 | > 100 | > 100 |
| COc1cc(C(=O)NNC(=O)c2cc(Br)ccc2NC(=O)c2cccs2)cc(OC)c1OC | > 100 | 51.5 | > 100 | 57.1 | 74.3 | 24.6 |
| O=C(CP(=O)(c1ccccc1)c1ccccc1)c1cccc(C(=O)CP(=O)(c2ccccc2)c2ccccc2)c1 | > 100 | > 100 | > 100 | – | > 100 | 37.6 |
| CC(C)OC(=O)c1ccc(NCC2=CC(=O)C=CC2=O)cc1 | 6.48 | 28.6 | 6.14 | 29 | > 100 | 76.3 |
| COc1ccccc1C[C@@H]1OC2(C=CC(=O)CC2SC(=O)c2ccccc2)O[C@H]1Cc1ccccc1OC (stereo partly specified) | 1.03 | 0.651 | 19.5 | 5.43 | 4.94 | 3.28 |
| COc1nn(Cc2ccccn2)c2ccc([N+](=O)[O-])cc12 | > 100 | > 100 | > 100 | > 100 | > 100 | 93 |
| O=C(Nc1ccc(Cl)cc1)c1cc(S(=O)(=O)Nc2n[nH]c(Nc3ccc4ccccc4c3)n2)c(SSc2cc(Cl)c(C(=O)Nc3ccc(Cl)cc3)cc2S(=O)(=O)Nc2n[nH]c(Nc3ccc4ccccc4c3)n2)cc1Cl | 43.6 | 39.5 | 42.3 | 66.5 | 50.4 | 76.6 |
| CCCN(CCc1ccc(-c2ccccc2)cc1)CCc1ccc2n[nH]nc2c1 | 19.4 | 18.1 | 19.1 | 25.8 | 26.8 | 30.6 |
| OC1=C2c3ccccc3NC2Oc2cc(F)ccc21 (stereo unspecified) | 7.21 | 28.7 | 34.5 | 36 | 44.6 | – |
| CN(C)CCn1c(=O)c2ccc(NCCNCCO)c3c(=O)c4ccccc4n(c1=O)c23 | – | 3.4 | – | 0.849 | 3.98 | 0.404 |
| CC(=O)c1c(-c2ccc(Cl)cc2)c(-c2ccc(Cl)cc2)n[nH]c1=O | > 100 | > 100 | > 100 | > 100 | > 100 | – |
| O=C1c2ccccc2C(=O)C2NC(CCCCCSSCCCCCC3=NC4C(=O)c5ccccc5C(=O)C4N3)=NC12 (stereo unspecified) | > 100 | > 100 | > 100 | > 100 | – | – |
| Cc1ccc(S(=O)(=O)NC(=O)NCc2ccc(S(N)(=O)=O)cc2)cc1 | – | > 100 | > 100 | > 100 | > 100 | > 100 |
| CCCCNC(=S)Nc1nc(C(=O)NNC(=S)NCC)cs1 | > 100 | > 100 | > 100 | > 100 | – | > 100 |
| CC12Nc3c(Cl)cc(Cl)cc3N1C(=O)c1ccccc12 (stereo unspecified) | > 100 | > 100 | > 100 | > 100 | – | > 100 |
| COC(=O)/C(C)=N/NC(=S)SC | 11 | 98.5 | > 100 | > 100 | – | – |
| CC(=O)O[C@H]1C(=O)[C@@]2(C)[C@H]([C@H](OC(=O)c3ccccc3)[C@]3(O)C[C@H](OC(=O)[C@H](O)[C@@H](NC(=O)c4ccc(N)cc4)c4ccccc4)C(C)=C1C3(C)C)[C@]1(OC(C)=O)CO[C@@H]1C[C@@H]2O | > 23.7 | > 50 | > 29.5 | – | > 50 | > 50 |
| COc1cc2c(cc1OCCCNC(=O)c1cc3ccccc3[nH]1)N=C[C@@H]1CCCN1C2=O | > 100 | 14.3 | > 100 | – | > 38.3 | 2.01 |
| CC(=O)OCC(OC(C)=O)C1C[C@H]2O[C@@H]3[C@H](C[C@H]2O1)O[C@@]1(C[C@@H]3C)C[C@H](C)[C@@H]2O[C@]3(C[C@@H]2O1)C[C@H]1O[C@H]2[C@H](C)[C@H]4OC(=O)C[C@H]5CC[C@@H]6OC7[C@H]8O[C@]9(CC[C@H]%10CC(=O)[C@H](CC[C@H]%11C[C@@H](C)C(=O)C(C[C@@H]4O[C@H]2C[C@H]1O3)O%11)O%10)CC8O[C@@H]7[C@@H](O9)[C@H]6O5 (stereo partly specified) | > 1 | > 0.39 | > 1 | – | > 1 | > 1 |
| COc1ccc(CNc2ccn(C3OC(CO)C(O)C3O)c(=O)n2)cc1 (stereo unspecified) | > 100 | > 100 | > 100 | > 100 | > 100 | – |
